Data: patent US20240156872A1, “Use of Chaperone-Mediated Autophagy Activators For Treating Or Preventing Blood Cancers And Myelodysplastic Syndromes And Enriching Hematopoietic Stem Cell Populations” (ALBERT EINSTEIN COLLEGE OF MEDICINE, priority 2021, published 2024)

Key:
[1] = tested on: CMA in HSC from KFERQ-Dendra mice; experiment: KFERQ-Dendra CMA reporter in HSC after in vivo activation; parameters: species or system mouse
Description: Mice. Hematopoietic system specific L2A KO mice were created by crossing C57BL/6 Vav-iCre mice with C57BL/6 L2Af/f mice. […] For the aging studies, 3-4 months (labeled as 4 m) and 25-30 m (labeled as >25 m) male mice were used in the young and old group, respectively. KFERQ-Dendra2 transgenic mice and KFERQ-Dendra mice defective in CMA (KFERQ-Dendra-L2AKO) were generated as described before. […] Young and old controls were similarly injected with tamoxifen. […] KFERQ-Dendra mice with extra copy of human L2A (KFERQ-Dendra-hL2AOE) were generated by breeding KFERQ-Dendra male mice with hL2AOE mice. […] Bone marrow was analyzed at the same times. Data is from the analysis 8 days post-injection, unless otherwise specified. For serial 5FU injections, mice were injected every week and 7 days post injection blood was taken and blood counts measured as above and dead mice and time of death were registered. […] The CMA activator (CA 20 mg/Kg b.w. per mouse day for 2 months) was administered orally in the form of sucralose gelatin agar pills.
Immunofluorescence staining. HSC or myeloid progenitor cells were directly sorted into 16-well slides pre-coated with Cell-Tak Cell Tissue Adhesive (Coming, 354240) and then fixed with 4% PFA for 15 min at room temperature (RT). For LAMP2A, LAMP1, total human LAMP2 and FADS2 staining, slides were washed with PBS and incubated with blocking buffer (5% goat serum/0.3% TrionX-100 in PBS) for 1 hour at RT and incubated ovemight at 4° C. with the first antibody diluted in 1% BSA/0.3% TritonX-100 followed by 40 min incubation at RT with fluorescence-conjugated secondary antibodies. Cells were washed 3 times with PBS and mounted with mounting medium with DAPI (Southern biotech). […] Oxidized proteins were detected with OxyICC Oxidized Protein Detection Kit from Sigma (S7350) and protein inclusions were detected with PROTEOSTAT Aggresome detection kit from ENZO (ENZ-51035) following manufacturer's instructions. […] For analysis of CMA activity using direct fluorescence and the KFERQ-Dendra CMA reporter, cells isolated from KFERQ-Dendra2 transgenic mice were fixed with 2% PFA for 5 min at RT and mounted for direct puncta counting or subjected for immunofluorescence as described above. Quantification was performed in TIFF converted images upon thresholding using the 3D object counter tool of Image J software (NIH). Average number of puncta per cell was determined for each of the cells in a field and at least 3 different fields per animal were counted. Where indicated, we also calculated the percentage of cells active for CMA, defined as those with at least two Dendra positive puncta. […] CMA flux was calculated as the increase in number of Dendra positive puncta upon leupeptin treatment. […]

[2] = tested on: Bead sorted CD34+ MNC from patients over 55 years of age; experiment: FACS quantification of phenotypical HSC (HSPCs) in CD34+ MNC after 72 hours in HSC maintenance cultures; format: cell-based, human; details: for long-term HSCs (LT-HSC; CD90+, CD49f+, CD34+, CD38−, Lin-): short term ex vivo culture vs vehicle (FIG. 17)
Procedure: FIG. 15. Representative FACS data and gating strategy. Bead sorted CD34+ MNC from patients over 55 years of age were treated with compounds 77.1, 77.43, 77.36, B13, B19 or vehicle control for 72 hours in HSC maintenance cultures. The experimental readout is quantification of phenotypical HSC (HSPCs) by FACS analysis. […] Results also identified a positive trend in HSC number from a HC derived specimen.

Ctrl and L2AKO HSC = experiment: Colony formation and serial re-plating assay with Ctrl and L2AKO HSC with supplemented media; format: cell-based, mouse
Description: Colony formation and serial re-plating assays. […] Colonies were scored after 10 to 12 days for mouse and 14 to 16 days for human cells using an Inverted Infinity and Phase Contrast Microscope (Fisher Scientific).

HSC from old (22 m) mice = details: daily injections of GLA (1mg/kg bw) for 7 weeks vs saline
Procedure: Mice. […] For the aging studies, 3-4 months (labeled as 4 m) and 25-30 m (labeled as >25 m) male mice were used in the young and old group, respectively. […] For GLA supplementation, old mice (>25 m) were injected with either saline or GLA (1mg/kg bw) for 40 days.
Colony formation and serial re-plating assays. Sorted mouse HSC (180 cells Lin−/cKit+/Scal+/CD48−/CD150+) or CD34-enriched human HSPC (5,000 cells) were plated into methylcellulose media ([sequence] Technologies, MethoCult M 3434 for mouse or MethoCult H4434 for human) according to the manufacturer's protocols. Colonies were scored after 10 to 12 days for mouse and 14 to 16 days for human cells using an Inverted Infinity and Phase Contrast Microscope (Fisher Scientific). […] Where indicated, media was supplemented with 100 nM FADS2 inhibitor SC-26196 (Sigma, PZ0176), 100 μM γ-linolenic fatty acid (GLA) (Sigma, L2378), 100 μtM NAC (Sigma, A7250) or 5 mM Methyl-pyruvate (Sigma, 371173).

[3] = tested on: human CD34+ cells from old (>65 year) multi-myeloma patients; details: CD34+ cells from old (>65 years) patients, ex vivo GLA
Description: Human hematopoietic stem and progenitor cells. Mobilized peripheral blood from multiple myeloma patients (59-71 years old) was enriched for mononuclear cells by density gradient centrifugation using Ficoll-Paque PLUS (GE Healthcare). Mono-nuclear cells were further enriched for CD34+ cells using immunomagnetic bead sorting (CD34 MicroBead Kit, human; Miltenyi Biotec) according to the manufacturer's protocol. The isolated CD34+cells were then used for LTC-IC or colony formation assays. LTC-IC assay. To assess LTC-IC frequencies, serial dilutions of FACS-sorted mouse Lin-Sca-l+c-Kit+ (LSK) cells or CD34+enriched human HSPCs were plated in MyeloCult [MUT] for mouse or MyeloCult [MUT] for human ([sequence] Technologies) mixed at 50:50 ratio with primary mouse stroma cell-conditioned medium or with HS5-conditioned medium for human cells. For each cell dose (1:10, 1:20, 1:40, 1:80, 1:160 for mouse LSK cells, 1:50, 1:100, 1:200, 1:400, 1:800 for human HSPC), 10 technical replicates were performed. […] For CFU-C counting, in the case of mouse samples, wells containing any type of colonies were scored as positive, while in the case of human samples, only wells with GEMM colonies were scored as positive. […]

O=c1[nH]cc(F)c(=O)[nH]1 [5FU, 5-fluorouracil]
time of CMA returning to basal levels in HSC ([1]; after 5FU injection): 16 days | time of maximal CMA upregulation in HSC ([1]; after 5FU injection): 8 days | CMA activity in HSC (Dendra puncta per cell) ([1]; after single injection of 5FU): further upregulate CMA

CC(=O)Nc1ccc(-c2cnc3cc(Cl)ccc3n2)cc1 [CA77.1, N-(4-(6-chloroquinoxalin-2-yl)phenyl)acetamide]
number of phenotypical HSCs by FACS ([2]; AML patient derived specimen, 72 hours vs vehicle): detectable and significant increase in HSCs | long-term HSCs (LT-HSC; CD90+, CD49f+, CD34+, CD38−, Lin-) [2]: significantly more long-term HSCs (LT-HSC) than vehicle

Clc1ccc2nc(-c3ccc(Nc4cnccn4)cc3)cnc2c1 [CA77.36, N-(4-(6-chloroquinoxalin-2-yl)phenyl)pyrazin-2-amine]
long-term HSCs (LT-HSC; CD90+, CD49f+, CD34+, CD38−, Lin-) [2]: significantly more long-term HSCs (LT-HSC) than vehicle

Cc1nnc(-c2ccc(-c3cnc4cc(Cl)ccc4n3)cc2)[nH]1 [CA77.43, 6-chloro-2-(4-(5-methyl-4H-1,2,4-triazol-3-yl)phenyl)quinoxaline]
long-term HSCs (LT-HSC; CD90+, CD49f+, CD34+, CD38−, Lin-) [2]: significantly more long-term HSCs (LT-HSC) than vehicle

CCCCC/C=C\C/C=C\C/C=C\CCCCC(=O)O [GLA, γ-linolenic acid]
self-renewal capacity of CMA-defective (L2AKO) HSC (colony numbers) (Ctrl and L2AKO HSC; L2AKO HSC, GLA supplemented media, ex vivo): restored their self-renewal capacity ex vivo | HSC function by colony formation (HSC from old (22 m) mice): improved HSC function as assessed by colony formation | number of functional human stem cells in long-term cultures (LTC-IC) [3]: increased the number of functional human stem cells in long-term cultures

CC(=O)N[C@@H](CS)C(=O)O [NAC, N-acetylcysteine]
long-term colony initiation abilities of L2AKO HSC (total colony numbers in 3rd plating) (Ctrl and L2AKO HSC; L2AKO HSC, NAC from the 1st plating): restored their ex vivo long-term colony initiation abilities

N#CC(CCCN1CCN(/N=C/c2cccnc2)CC1)(c1ccccc1)c1ccccc1 [SC-26196]
self-renewal ability of control HSC (colony numbers) (Ctrl and L2AKO HSC; control cells, 100 nM FADS2 inhibitor SC-26196, first plating): sufficient to reduce self-renewal ability of control cells

polyI:C
CMA activity in HSC (Dendra puncta per cell) ([1]; 48 hours after injection of PolyI:C vs vehicle): upregulated CMA
